Assay results reported in US20240360122A1, “POLYMORPHIC FORMS AND SALTS OF A GLP-1R AGONIST” (Terns (Suzhou) Biotechnology Co., Ltd., priority 2023, published 2024).
“Also recorded” adds a separate entry of the source. Counter-ions that a name gives are not always drawn. Like-named read-outs stand apart in the source and are kept apart here.

How the values were obtained:
Assay type in all cases: physicochemical
[1] = Kinetic solubility in water and bio-relevant media (SGF, FaSSIF, FeSSIF) at 37° C.; settings: for S: Solubility: calculated by freeform; for FC: Form change: residual solids by XRPD; for solubility at 2 h: highest solubility
Procedure, shortened: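 Compound rolled at 37 °C (~25 rpm) in water, SGF (pH 1.8, NaCl, Triton X-100), FaSSIF (pH 6.5 phosphate, SIF powder) or FeSSIF (pH 5.0 acetate, SIF powder). Samples at 1, 2, 4 and 24 h were centrifuged and 0.45 μm-filtered; filtrate concentration and pH measured, residual solid checked by XRPD.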

[2] = Solubility of Meglumine salt Type A in SGF and FaSSIF at 37° C. with adjusting pH to that of the blank medium; settings: for solubility at 2 h / solubility at 4 h: read-out: S (solubility)
Experimental: Detailed procedures are as follows.
1) Added ˜40 mg of sample into a 5-mL glass vial. Add 4 mL of medium. Adjust pH to 1.8 or 6.5 using HCl (1 M) or NaOH (1 M).
2) Rolled at 37° C. (˜25 rpm). Sample at 1, 2, 4 and 24 hrs.
3) At each time-point, sample 0.8 mL of solution or suspension into a centrifuge tube prior to centrifugation (12000 rpm, 37° C., 5 min) and filtration through 0.45 μm PTFE membrane.
4) Adjusted pH of the rest of suspension to 1.8 or 6.5 using HCl (1 M) or NaOH (1 M).

[3] = Approximate solubility in different solvents at RT
Experimental: For each experiment, approximately 2 mg of sample was added into a 3-mL glass vial. Corresponding solvents were then added stepwise (50/50/200/700/1000 μL) into the vials until the solids were dissolved visually or a total volume of 2 mL was reached. Solubility results summarized in Table 64 to Table 66 were used to guide the solvent selection in polymorph screening design.

[4] = Slurry competition among Meglumine salt Type A/B/C; settings: slurry competition in DMSO/EtOAc (1:6, v/v), RT and 50° C.
Experimental: The detailed procedures are as following:
Add 1 mL corresponding solvent.
2) Magnetically stir at RT or 50° C. for 1 day. Filter through 0.45 μm PTFE filter to obtain clear solution.
4) Magnetically stir at RT or 50° C. for 1 day. Test XRPD of the wet cake.

[5] = pH solubility in pH 1.0-8.0 buffers at RT; settings: thermodynamic from solid; for solubility: pH buffers, 2 and 24 hours
Experimental: The procedures were listed below:
1. […] Add 2 ml, of the corresponding medium.
2. Mixed well and stirred at RT (1000 rpm). Check the pH and adjust it back to the target pH after dosing.
3. Sampled after 2 hours and 24 hours. The supernatant was isolated by centrifugation (12000 rpm, 5 min) and filtration (0.22 μm, PTFE) for pH and HPLC test.

[6] = Competitive experiments of Type A and Type B in different solvent system at different temperature; settings: different ratio of DMSO/EA system at different temperature
[7] = pH 1.8, simulated gastric fluid, thermodynamic from solid, SGF, pH adjusted to 1.8, 37° C., read-out: solubility in SGF
[8] = pH 6.5, thermodynamic from solid, FaSSIF, pH adjusted to 6.5, 37° C., read-out: solubility in FaSSIF

## N#Cc1ccc(COc2cccc(C3CCN(Cc4nc5ccc(C(=O)O)cc5n4Cc4cncs4)CC3)n2)c(F)c1 [Meglumine salt Type A]
[1]; FaSSIF, 37° C., 1 hr
  S: Solubility: 900 µg/mL
  FC: Form change: Yes
[1]; FaSSIF, 37° C., 2 hrs
  S: Solubility: 1300 µg/mL
  FC: Form change: Yes
[1]; FaSSIF, 37° C., 4 hrs
  S: Solubility: 720 µg/mL
  FC: Form change: Yes
[1]; FaSSIF, 37° C., 24 hrs
  S: Solubility: 70 µg/mL
  FC: Form change: Yes
[1]; FaSSIF, 37 °C, pH 6.5, fassif, thermodynamic from solid, FaSSIF, 37° C., read-out: solubility in FaSSIF
  solubility at 2 h: 1300 µg/mL
[1]; FeSSIF, 37° C., 1 hr
  S: Solubility: 170 µg/mL
  FC: Form change: Yes
[1]; FeSSIF, 37° C., 2 hrs
  S: Solubility: 170 µg/mL
  FC: Form change: Yes
[1]; FeSSIF, 37° C., 4 hrs
  S: Solubility: 86 µg/mL
  FC: Form change: Yes
[1]; FeSSIF, 37° C., 24 hrs
  S: Solubility: 27 µg/mL
  FC: Form change: Yes
[1]; H2O, 37° C., 1 hr
  S: Solubility: >8600 µg/mL
[1]; H2O, 37° C., 2 hrs
  S: Solubility: >8900 µg/mL
[1]; H2O, 37° C., 4 hrs
  S: Solubility: >8300 µg/mL
[1]; H2O, 37° C., 24 hrs
  S: Solubility: 7000 µg/mL
  FC: Form change: Yes
[1]; H2O, SGF and FaSSIF, 37° C.
  solubility compared with the other selected salts and Freeform Type C: higher solubility than other salts and Freeform Type C; also recorded: higher solubility in H2O, SGF and FaSSIF
[1]; SGF, 37° C., 1 hr
  S: Solubility: 380 µg/mL
  FC: Form change: Yes
[1]; SGF, 37° C., 2 hrs
  S: Solubility: 720 µg/mL
  FC: Form change: Yes
[1]; SGF, 37° C., 4 hrs
  S: Solubility: 680 µg/mL
  FC: Form change: Yes
[1]; SGF, 37° C., 24 hrs
  S: Solubility: 290 µg/mL
  FC: Form change: Yes
[1]; SGF, 37 °C, pH 1.8, simulated gastric fluid, thermodynamic from solid, SGF, 37° C., read-out: solubility in SGF
  solubility at 2 h: 720 µg/mL
[1]; all the media (H2O, SGF, FaSSIF, FeSSIF), after 24 hrs
  form change of residual solids (XRPD) after solubility test: form change was observed
[1]; in H2O, SGF and FaSSIF, comparison among selected salts and Freeform Type C
  Kinetic Solubility: 1) In H2O, SGF and FaSSIF, Meglumine salt Type A exhibited higher solubility than other salts and Freeform Type C;
[1]; water, 37 °C, thermodynamic from solid, H2O, at 1, 2 and 4 hrs
  solubility: > 8300 µg/mL
[1]; water, 37 °C, thermodynamic from solid, H2O, throughout the 24-hour process
  solubility: ≥ 7000 µg/mL
[1]; water, 37 °C, water, thermodynamic from solid, H2O, 37° C., at 24 hrs, read-out: solubility in H2O
  solubility at 24 h: 7000 µg/mL
[2]; SGF, 37° C., pH adjusted to 1.8, 1 hr
  S (solubility): 730 µg/mL
[2]; pH 1.8, simulated gastric fluid, thermodynamic from solid, SGF, 37° C., pH adjusted to 1.8, 2 hrs
  solubility at 2 h: 160 µg/mL
[2]; pH 1.8, simulated gastric fluid, thermodynamic from solid, SGF, 37° C., pH adjusted to 1.8, 4 hrs
  solubility at 4 h: 120 µg/mL
[2]; [7]
  solubility at 1 h: 730 µg/mL
  solubility at 24 h: 140 µg/mL
[2]; pH 6.5, thermodynamic from solid, FaSSIF, 37° C., pH adjusted to 6.5, 2 hrs
  solubility at 2 h: 14 µg/mL
[2]; pH 6.5, thermodynamic from solid, FaSSIF, 37° C., pH adjusted to 6.5, 4 hrs
  solubility at 4 h: 11 µg/mL
[2]; [8]
  solubility at 1 h: 29 µg/mL
  solubility at 24 h: 6 µg/mL
[3]; 2-MeTHF, RT
  Approximate solubility: S < 1.0 mg/mL
[3]; ACN, RT
  Approximate solubility: S < 1.0 mg/mL
[3]; Acetone, RT
  Approximate solubility: S < 1.1 mg/mL
[3]; Anisole, RT
  Approximate solubility: S < 1.1 mg/mL
[3]; CHCl3, RT
  Approximate solubility: S < 1.0 mg/mL
[3]; CPME, RT
  Approximate solubility: S < 1.0 mg/mL
[3]; DCM, RT
  Approximate solubility: S < 1.1 mg/mL
[3]; EtOAc, RT
  Approximate solubility: S < 1.1 mg/mL
[3]; H2O, RT
  Approximate solubility: S > 44.0 mg/mL
[3]; IPA, RT
  Approximate solubility: S < 1.1 mg/mL
[3]; IPAc, RT
  Approximate solubility: S < 1.0 mg/mL
[3]; MIBK, RT
  Approximate solubility: S < 1.0 mg/mL
[3]; MTBE, RT
  Approximate solubility: S < 1.0 mg/mL
[3]; THF, RT
  Approximate solubility: S < 1.1 mg/mL
[3]; Toluene, RT
  Approximate solubility: S < 1.2 mg/mL
[3]; n-Heptane, RT
  Approximate solubility: S < 1.0 mg/mL
[4]
  thermodynamic stability relationship among Meglumine salt forms: thermodynamically more stable anhydrate; also recorded: more thermodynamically stable form; also recorded: thermodynamically more stable form
[5]; pH 3.5 buffer, pH 3.5, aqueous buffer, LOQ = 0.0001 mg/mL
  solubility at 2 h: 21 µg/mL
[5]; pH 4.5 buffer, pH 4.5, aqueous buffer, LOQ = 0.0001 mg/mL
  solubility at 2 h: 3.7 µg/mL
[5]; pH 4.5 buffer, pH 4.5, aqueous buffer, 24 Hours, LOQ = 0.0001 mg/mL
  solubility at 24 h: 0.1 µg/mL
[5]; pH 5.5 buffer, pH 5.5, aqueous buffer, LOQ = 0.0001 mg/mL
  solubility at 2 h: 2.8 µg/mL
[5]; pH 1, aqueous buffer, pH 1.0 and 8.0 buffers
  solubility: 150 to 1300 µg/mL
[5]; pH 2, aqueous buffer, pH 2.0 and 6.8 buffers
  solubility: 16 to 200 µg/mL
[5]; pH 3.5, aqueous buffer, pH 3.5, 4.5 and 5.5 buffers
  solubility: ≤ 21 µg/mL
[6]
  thermodynamic stability, Type A versus Type B: thermodynamically more stable
